Entries after “also recorded” stand apart in the source; their conditions may differ.
Tests used:
[1] = system: male C57bl/6j mice; test: oral glucose tolerance test (oGTT) in normal lean mice; format: in vivo, mouse; settings: 1 mg/kg and 10 mg/kg p.o.
Procedure: (§1) Animals were grouped in regular cages (rats 2/cage, mice 4/cage) with bedding under normal light conditions (lights on 6:30 am-6:30 pm). They were given ad libitum access to food and water. Animals were allowed to acclimate to the facility for several days before handling.
Mouse: Following 2 handling sessions, animals were fasted for 3-16 h.
The oral glucose tolerance test (oGTT) was executed as follows: Compound was administered 0-30 min prior to first blood sample. At time 0, a tail nick and glucose test was performed with a hand-held glucometer, then a bolus of glucose ([…], p.o.) was administered. Glucose was again tested at 20, 40, 60, and 120 minutes post glucose administration. During the entire oGTT, a total volume of approximately 10 drops of blood was collected.

[2] = system: dog; settings: 7-day
[3] = system: Caco-2 monolayers; test: permeability across Caco-2 monolayers; format: in vitro ADME
[4] = biological target: hERG channel (Homo sapiens, UniProt Q12809); test: hERG patch clamp study; format: cell-based
[5] = system: ob/ob Mice; test: oGTT in ob/ob mice; format: in vivo, mouse; settings: 3 mg/kg
[6] = oral pharmacokinetics in rat; format: in vivo; settings: Male Sprague-Dawley rat, 10 mg/kg, 40% HPβCD
[7] = system: healthy male volunteers; settings: cited from earlier work
[8] = system: Male C57BL/6 mice fed high fat diet; test: High Fat Diet (HFD) mouse model of non-alcoholic fatty liver disease; format: in vivo; settings: five times per week for six weeks
Text: Male C57BL/6 mice (8 weeks) were fed either normal or high fat diet (HFD) (60% TD06414, Envigo) and given water ad libitum. […] At 20 weeks, mice were sacrificed and serum plasma was collected for measurement of various biochemical parameters, including serum transaminases.

[9] = stability in rat liver microsomes; format: in vitro ADME
[10] = system: Cynomolgus monkey; test: oGTT in normal cynomolgus monkey; format: in vivo; settings: 3 mg/kg
[11] = oral pharmacokinetics in monkey; format: in vivo; settings: Male cynomolgus monkey, 10 mg/kg, 100% PEG400
[12] = system: T2DM patients; settings: cited from earlier work
[13] = system: Sprague-Dawley rat; test: oral glucose tolerance test (oGTT) in Sprague-Dawley rat; format: in vivo
Procedure: as §1
Rat: Animals are fasted 3-16 h.
The oral glucose tolerance test (OGTT) was executed as follows: At time minus 30 min, blood was collected via a tail nick and a glucose test performed with a hand-held glucometer, and compound was then administered. At time 0, blood was again collected for glucose reading and then a bolus of glucose (3 g/kg p.o., 6 mL/kg) administered. Blood glucose levels were further tested at 30, 60, and 120 min post glucose administration. During the entire oGTT, a total volume of approximately 8 drops of blood was collected. Rats were used twice with a one week lapse between experiments.

[14] = system: rat; settings: 14-day
[15] = system: ZDF rat; test: oGTT in ZDF rat; format: in vivo; settings: 3 mg/kg
[16] = oral pharmacokinetics in mouse; format: in vivo, Male C57B1 mouse
[17] = stability in human liver microsomes; format: in vitro ADME
[18] = system: anesthetized Guinea Pig; test: cardiovascular effects in the anesthetized Guinea Pig; format: in vivo; settings: cumulative doses up to 5 mg/kg i.v., compared to vehicle controls
[19] = oral pharmacokinetics in dog; format: in vivo; settings: Male beagle dog, 7.85 mg/kg, 100% PEG400
[20] = system: mice fed a high-fat diet; settings: cited from earlier work
[21] = healthy male volunteers, 2.5-800 mg
[22] = oral single-dose, compared with placebo
[23] = 100 or 500 mg single-dose or 500 mg once daily for 14 days
[24] = multiple dosing, compared to baseline
[25] = Sprague-Dawley rat, 3-30 mg/kg PO
[26] = Male C57B1 mouse, 10 mg/kg, 40% HPβCD
[27] = oral administration, mice fed a high-fat diet

hERG channel, sequence (Q12809 whole entry): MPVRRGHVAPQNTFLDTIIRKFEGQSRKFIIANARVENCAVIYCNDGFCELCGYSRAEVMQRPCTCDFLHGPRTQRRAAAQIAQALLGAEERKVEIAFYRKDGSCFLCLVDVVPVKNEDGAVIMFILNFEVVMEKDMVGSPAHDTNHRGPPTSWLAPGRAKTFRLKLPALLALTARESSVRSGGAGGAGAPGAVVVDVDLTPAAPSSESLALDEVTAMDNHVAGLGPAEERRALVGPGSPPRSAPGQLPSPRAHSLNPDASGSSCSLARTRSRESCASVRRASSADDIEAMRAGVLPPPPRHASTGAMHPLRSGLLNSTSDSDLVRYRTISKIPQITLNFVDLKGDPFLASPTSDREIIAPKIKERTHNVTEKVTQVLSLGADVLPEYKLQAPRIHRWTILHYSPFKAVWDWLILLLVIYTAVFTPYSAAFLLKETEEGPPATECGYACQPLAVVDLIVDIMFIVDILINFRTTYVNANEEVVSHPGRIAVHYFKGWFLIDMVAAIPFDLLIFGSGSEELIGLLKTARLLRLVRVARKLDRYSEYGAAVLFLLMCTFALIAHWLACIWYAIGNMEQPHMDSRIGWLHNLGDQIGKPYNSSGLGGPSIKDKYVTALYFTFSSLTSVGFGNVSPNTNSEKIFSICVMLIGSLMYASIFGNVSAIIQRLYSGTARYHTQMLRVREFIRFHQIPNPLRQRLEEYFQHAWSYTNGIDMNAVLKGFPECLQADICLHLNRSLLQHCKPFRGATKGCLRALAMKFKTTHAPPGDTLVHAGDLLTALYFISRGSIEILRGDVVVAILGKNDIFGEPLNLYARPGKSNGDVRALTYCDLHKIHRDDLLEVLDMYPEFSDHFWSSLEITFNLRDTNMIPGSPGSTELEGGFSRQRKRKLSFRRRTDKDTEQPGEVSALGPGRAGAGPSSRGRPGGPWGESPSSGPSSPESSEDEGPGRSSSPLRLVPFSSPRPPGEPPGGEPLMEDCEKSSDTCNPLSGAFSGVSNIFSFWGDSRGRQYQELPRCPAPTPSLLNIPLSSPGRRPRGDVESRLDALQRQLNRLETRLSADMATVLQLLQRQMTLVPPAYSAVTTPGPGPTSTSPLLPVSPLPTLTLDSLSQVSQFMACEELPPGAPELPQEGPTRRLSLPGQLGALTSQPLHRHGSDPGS

COc1c(Nc2ccc(S(C)(=O)=O)nc2C)ncnc1OC1CCN(C(=O)OC(C)C)CC1 [Compound 1, 4-[6-(6-Methanesulfonyl-2-methyl-pyridin-3-ylamino)-5-methoxy-pyrimidin-4-yloxy]-piperidine-1-carboxylic acid isopropyl ester]
AUCglu during oGTT [1]: significant reduction; also recorded: significant main effect | preliminary safety findings [2]: no obvious liabilities | permeability across Caco-2 monolayers, A to B ([3]; A to B): 26 ×10⁻⁶ cm/s | permeability across Caco-2 monolayers, B to A ([3]; B to A): 15 ×10⁻⁶ cm/s | IC50 [4]: 13 ± 0.2 µM | Blood glucose AUC (% of vehicle group) [5]: 78.4 ± 5.1 % of vehicle group | % F [6]: 72% | AUCinf [6]: 12471 ng·h/mL | Cmax [6]: 1390 ng/mL | tmax [6]: 1 h | hypoglycemia [7, 21]: not associated with hypoglycemia | systemic exposure in plasma versus dose [7, 21]: increased in proportion to the dose | tolerability [7, 21]: well tolerated | influence of food on systemic exposure in plasma ([7]; healthy male volunteers, coadministration of food): not influenced by coadministration of food | terminal elimination half-life ([7]; healthy male volunteers, oral suspension formulation): ~13 h | glucose excursion [7, 22]: did not significantly decrease | insulin secretion [7, 22]: did not significantly decrease glucose excursion or increase insulin secretion | postmeal plasma glucagon-like peptide 1 (GLP-1) concentration [7, 22]: increased | postmeal plasma glucose-dependent insulinotropic peptide (GIP) concentration [7, 22]: increased | postmeal plasma peptide YY (PYY) concentration [7, 22]: increased | increases in serum ALT caused by high fat diet ([8]; HFD mice, 3, 10 and 30 mg/kg/day): blocked | t1/2 in liver microsomes [9]: > 1 h | Compd exposure upon oGTT [10]: 112 ± 16.9 ng/mL | Blood glucose AUC (% of vehicle group) ([10]; oGTT): 82.8 ± 1.7 % of vehicle group | % F [11]: 68.8% | AUCinf [11]: 64180 ng·h/mL | Cmax [11]: 4803 ng/mL | tmax [11]: 6 h | hypoglycemia [12, 23]: not associated with hypoglycemia | tolerability [12, 23]: well tolerated | plasma systemic exposure versus dose [12]: increased with increased dose | post-meal gastric insulinotropic peptide concentration [12, 24]: increased | post-meal total glucagon-like peptide 1 concentration [12, 24]: increased | time to attain steady-state ([12]; multiple-dose administration): approximately 8 days | plasma systemic exposure after multiple-dose administration ([12]; multiple-dose versus single-dose): approximately two-fold greater | glucose excursion during an oral glucose tolerance test ([12]; single-dose, compared with placebo): decreased | Compd exposure upon oGTT ([13]; SD rats, 3 mg/kg): 482 ± 116 ng/mL | Blood glucose AUC (% of vehicle group) ([13]; SD rats, 3 mg/kg, oGTT): 85.1 ± 1.9 % of vehicle group | AUCglu during oGTT [13, 25]: markedly reduced; also recorded: significant main effect | glucose handling [13, 25]: significantly improved | preliminary safety findings [14]: no obvious liabilities | Compd exposure upon oGTT [15]: 1592 ± 128 ng/mL | Blood glucose AUC (% of vehicle group) ([15]; oGTT): 72.8 ± 6.3 % of vehicle group | AUCinf [16, 26]: 319953 ng·h/mL | Cmax [16, 26]: 25833 ng/mL | tmax [16, 26]: 2 h | exposure after oral dosing ([16]; mouse): high | t1/2 in liver microsomes [17]: > 1 h | effects on mean arterial blood pressure (MAP), heart rate (HR) or electrocardiogram (ECG) [18]: did not produce any dose-related, statistically significant effects | % F [19]: 22.1% | AUCinf [19]: 43743 ng·h/mL | Cmax [19]: 1983 ng/mL | tmax [19]: 8 h

CCc1cnc(N2CCC(c3nc(COc4ccc(-n5cnnn5)cc4)cs3)CC2)nc1 [MBX-2982]
hepatic antilipogenesis effects in GPR119 KO mice ([20]; GPR119 KO mice): abolished | expression levels of SREBP-1 and lipogenesis-related genes [20, 27]: potently inhibited | hepatic lipid accumulation [20, 27]: potently inhibited | increases in serum ALT caused by high fat diet ([8]; HFD mice, 10 mg/kg/day): blocked by treatment with Compound 1, but not MBX-2982

— patent publication US20200129511A1, “COMPOUNDS AND METHODS FOR TREATMENT OF NAFLD AND NASH” (Arena Pharmaceuticals, Inc., priority 2017, published 2020)
